Consider one compound from US10335373B2, “Tamper resistant and dose-dumping resistant pharmaceutical dosage form” (GRÜNENTHAL GMBH, priority 2012, dated 2019).

Structures can show the parent of a compound that is named as a salt.

On to `C=CCN1CC[C@]23c4c5ccc(O)c4O[C@H]2C(=O)CC[C@@]3(O)[C@H]1C5` [naloxone hydrochloride], for which the “solubility in aqueous ethanol” value is reported as “soluble”.
